Data: patent publication US9980936B2, “BH4 antagonists and methods related thereto” (Emory University, priority 2014, dated 2018)
Entries after “also recorded” stand apart in the source; their conditions may differ. Like-named read-outs stand apart in the source and are kept apart here.

Assays:
[1] = system: H1299 cells or isolated mitochondria; assay: H1299 cells or isolated mitochondria expressing WT, ΔBH3 Bcl2 or vector: IP and Cyt c release; assay type: cell-based
Procedure: (§1) To further test whether the BH3 domain of Bcl2 is important for BDA-366 activation of Bax, purified recombinant WT and the BH3 deletion (ΔBH3) mutant Bcl2 proteins were incubated with purified Bax protein in the absence or presence of BDA-366, followed by IP with 6A7 antibody. […] To test this at the cellular or mitochondrial level, WT, ΔBH3 Bcl2 mutant and empty vector (pCIneo) were transfected into H1299 cells that express undetectable levels of endogenous Bcl2 but high levels of endogenous Bax. Cells or isolated mitochondria from these cells were treated with BDA-2, followed by IP with Bcl2 BH3 or 6A7 antibody, respectively.
To further test whether BDA-366 induces Cyt c release from mitochondria in a Bcl2 dependent fashion, mitochondria were isolated from H1299 cells expressing WT, ΔBH3 mutant Bcl2 or vector-only control. The isolated mitochondria were treated with BDA-366 (1 μM) for 30 min at 30° C. After centrifugation, Cyt c in the supernatant (i.e. Cyt c release) was analyzed by Western blot.

[2] = system: human lung cancer cell lines; assay: sensitivity of lung cancer cell lines versus ABT-737; assay type: cell-based
purified recombinant Bax = assay: cell-free Bax activation (IP using 6A7 Bax antibody); assay type: biochemical
Procedure: BDA-366-induced Bcl2 conformational change was also confirmed by immunofluorescence using a Bcl2/BH3-domain specific antibody. […] To test this possibility, a 6A7 Bax antibody that only recognizes the conformationally changed, active, form of Bax was employed. Purified Bcl2 was treated with BDA-366 in lysis buffer for 1 h. The mixture of Bcl2/BDA-2 was then incubated with purified recombinant Bax for another 2 h, followed by IP using 6A7 antibody.
as §1

[3] = system: NSCLC cell lines A549 and H1299; SCLC cell lines DMS114 and H128; assay: cell growth (SRB) and apoptosis (Annexin V/PI), lines with lower or undetectable Bcl2; assay type: cell-based; conditions: relatively lower or undetectable levels of endogenous Bcl2
Procedure: The effect of BDA-2 on cell growth and apoptosis was measured by SRB assay and Annexin V/PI binding, respectively, in both small cell lung cancer (SCLC) and non-small cell lung cancer (NSCLC) cell lines that express various levels of endogenous Bcl2.

H460 cells [4] = assay: autophagy (LC3-II, GFP-LC3); assay type: cell-based
Procedure: Bcl2 directly interacts with Beclin-1 and suppresses Beclin-1-dependent autophagy. Inhibition of Bcl2 by ABT-737 not only induces apoptosis but also autophagy. […] To test whether disruption of Bcl2 BH4 by BDA-2 stimulates autophagy, H460 cells were treated with BDA-366 (1 μM) for 24 h. […] To further quantify the level of autophagy, a GFP-LC3 construct was used to indicate autophagosomes.

[5] = system: H460 or DMS53 cells expressing Bcl2 shRNA transfected with AAAA Bcl2 mutant; assay: rescue of Bcl2-silenced cells with AAAA Bcl2 mutant; assay type: cell-based; conditions: 72 h
Source text: Whether expression of exogenous Bcl2 can restore the sensitivity of Bcl2-silenced lung cancer cells to BDA-2 and whether the BDA-2/BH4 binding is important for such effect was examined. WT and BDA-2 binding deficient D10A/N11A/R12A/E13A (AAAA) Bcl2 mutant cDNA in pCIneo or vector-only control were transfected into H460 or DMS53 cells expressing Bcl2 shRNA. It has been reported that if the shRNA is directed to the 3′ UTR or 5′ UTR of the gene, the effect of the shRNA1 can be rescued by ectopically expressing the protein using the wild-type or mutant cDNA. Because Bcl2 shRNA1 targets the 5′UTR of endogenous Bcl2, the silencing effect of shRNA1 on Bcl2 expression could be rescued by transfection of exogenous WT or AAAA Bcl2 mutant. After transfection, cells were treated with BDA-2 or the BH3 mimetic ABT-199 at the indicated concentrations for 72 h. […] The apoptotic effect of BDA-2 on lung cancer cells requires its BH4 binding.

[6] = Procedure: In order to define the appropriate doses for in vivo experimentation, the maximum tolerated dose (MTD) was determined. Nu/Nu nude mice were treated in groups of 6 per dose level with increasing doses of BDA-366 (10-50 mg/kg/d) intraperitoneally (i.p.) for up to 12 days. […] Standard single-dose MTD treatment in normal C57BL/6 mice were measured. […] 10% of single dose MTD can usually be considered as the maximum therapeutic dose (30˜40 mg/kg) for continuous treatment.
H460 cells [7] = assay: SRB cell growth assay, combination with mTOR inhibitor; assay type: cell-based, human; conditions: BDA-366 100 nM, RAD001 1 nM, alone or in combination, 72 hr
Procedure: Cell growth was analyzed by sulforhodamine B (SRB) colorimetric assay.

[8] = system: D10A, N11A, R12A, E13A, M16A, K17A, H20A and D31A Bcl2 mutants; assay: competitive fluorescence polarization, BH4 single-site mutants; assay type: binding; conditions: single mutation at each individual residue
Source text: A panel of Bcl2 mutants were generated within the BH4 domain at the specific residues that were identified by the initial docking simulations, including D10A, N11A, R12A, E13A, M16A, K17A, H20A and D31A Bcl2 mutants. A compound Bcl2 mutant D10A/N11A/R12A/E13A (AAAA) was created. Recombinant proteins of these mutants were generated for BDA-2/Bcl2 binding analysis using a competitive fluorescence polarization. […] Second, WT and all Bcl2 mutants were exogenously overexpressed in H1299 cells that express undetectable levels of endogenous Bcl2.

[9] = system: lung cancer xenografts derived from H460 cells; assay: H460 lung cancer xenografts
Procedure: Each group included 8 mice. Tumor volume was measured once every 2 days. After 14 days, the mice were sacrificed and the tumors were removed and analyzed.
To assess whether BDA-366 induced suppression of tumor growth via apoptosis in vivo, representative samples from harvested tumor tissues were analyzed by immunohistochemistry (IHC) for active caspase 3 or TUNEL assat.

H460 cells [10] = assay: H460 cells: Bcl2/BH3 immunofluorescence, Bcl2 expression, mitochondrial dysfunction; assay type: cell-based
Plasmid pUC19 DNA = assay: electrophoretic mobility shift assay (EMSA); assay type: binding
Procedure: To test whether BDA-2 reacts with DNA as a crosslinker, electrophoretic mobility shift assay (EMSA) was performed. Cisplatin, a known DNA binding agent, was used as positive control. Plasmid pUC19 DNA was incubated with BDA-2 or cisplatin.

[11] = 10, 20, 30 mg/kg/d i.p., 14 days

## CCN(CC)CC(O)CNc1ccc(NCC2CO2)c2c1C(=O)c1ccccc1C2=O (stereo not shown) [BDA-366, 1-((3-(diethylamino)-2-hydroxypropyl)amino)-4-((oxiran-2-ylmethyl)amino)anthracene-9,10-dione]
[1]; WT Bcl2, 1 μM, 30 min at 30° C.
  Cyt c release from isolated mitochondria: induced Cyt c release
[1]; cells or isolated mitochondria containing WT Bcl2
  Bcl2 conformational change and Bax activation: induced Bcl2 conformational change in association with Bax activation
[1]; ΔBH3 Bcl2 mutant or vector-only control
  Bcl2 conformational change and Bax activation: not
[2]
  sensitivity of most human lung cancer cell lines relative to ABT-737: more sensitive to BDA2 than ABT-737
Purified recombinant Bax; Bcl2 treated 1 h, then Bax 2 h
  Bax binding to 6A7 antibody induced by compound-treated Bcl2: enhanced the ability of Bax to bind to 6A7 antibody
Purified recombinant Bax; WT Bcl2
  Bax activation by WT Bcl2 in the presence of compound: can activate Bax via 6A7 conformational change
Purified recombinant Bax; without Bcl2
  direct activation of Bax: not a direct Bax activator
Purified recombinant Bax; ΔBH3 mutant Bcl2
  Bax activation by ΔBH3 mutant Bcl2 in the presence of compound: not
[3]
  sensitivity of cells: less sensitive
H460 cells [4]; 1 μM, 24 h
  levels of LC3-II: Increased levels of LC3-II
H460 cells [4]; compared to DMSO control
  percentage of GFP-LC3vac cells: significantly increases
[5]
  sensitivity of cells restored after expression of AAAA Bcl2: not
[6]; 40 mg/kg/d i.p.
  time within which dose was uniformly lethal: ≤ 8 days
[6]; 50 mg/kg/d i.p.
  time within which dose was uniformly lethal: up to 12 days
[6]; 10 to 30 mg/kg/d i.p., up to 12 days
  tolerability: tolerable with no death recorded
H460 cells [7]
  cell growth inhibition: partially inhibited lung cancer cell growth
[8]
  binding to single-site Bcl2 mutants: did not significantly reduce Bcl2's ability to bind BDA-2
[9]; 30 mg/kg
  body weight: Weight loss was observed
  neutrophils, lymphocytes, RBC and platelets in blood: no decreases in neutrophils, lymphocytes, red blood cells (RBC) and platelets (PLT)
[9]; [11]
  apoptosis in tumor tissues (active caspase 3 IHC or TUNEL): dose-dependent apoptosis induction
  tumor growth / repression of lung cancer in vivo: potently suppress lung cancer growth in vivo; also recorded: dose-dependent repression of lung cancer in vivo
[9]; 10, 20, 30 mg/kg/d i.p., 14 days, listed as BDA-2
  tumor growth / repression of lung cancer in vivo: represses lung cancer in vivo
[9]; 10-30 mg/kg/d
  histopathology of harvested normal tissues: no evidence of normal tissue toxicities
[9]; mouse, in vivo
  kidney (BUN) and liver (ALT and AST) function: in the normal range
H460 cells [10]
  Bcl2 expression level: did not significantly affect Bcl2 expression level
  Bcl2 immunofluorescence with Bcl2/BH3-domain specific antibody: enhanced significantly
H460 cells [10]; MitoSOX red staining, Cyt c release, PARP cleavage
  mitochondrial dysfunction and apoptosis: resulted in mitochondrial dysfunction
Plasmid pUC19 DNA
  binding to pUC19 DNA causing mobility shift: not
